According to US7091185B2, “Periodic antimicrobial peptides” (Dow Global Technologies Inc., priority 2003, dated 2006):
Read-outs that look alike come from different tables or passages of the source. Where no end group is shown, it is not given here.

Experiments:
E. coli ATCC 2592 = settings: ATCC 2592
Method: (§1) The bacteria tested were P. aeruginosa American Type Culture Collection Number (ATCC) 10145, E. coli ATCC 2592, and S. aureus (methicillin reseistant) ATTC 33591.
(§2) All experiments were compared to bacterial growth under optimal growth conditions (37° C., pH 7.0, absence of additional salt, growth media—referred to as standard growth conditions). In each plate, no growth control (media alone), positive growth control (bacteria with no test sample), positive antimicrobial controls (agents with known antimicrobial activity) and test compounds were tested.
(§3) The plates were incubated overnight, and the relative percent growth determined by optical density at 620 nm (OD620) using a […] […] PLUS™. […] All samples were tested in duplicate and each assay was repeated at least twice. […] IC50 and MIC are reported in μg/ml.

P. aeruginosa ATCC 10145 = settings: ATCC 10145
Method: as §1, §2, §3

[1] = test system: S. aureus (methicillin resistant) ATCC 33591
Method: as §1, §2, §3

C. albicans 10231 = type: cell-based; settings: 10231
Method: (§4) The MIC and IC50 values were determined by a broth microdilution method according to guidelines of the National Committee for Clinical Laboratory Standard as follows: In 96-well tissue culture plates, a fixed volume of bacterial suspension in 2× broth (as defined below) was added to the mixtures or individual compounds dispensed at concentrations varying from 1,000 to 1 μg/ml derived from serial two-fold dilutions in sterile water. The bacteria tested were P. aeruginosa American Type Culture Collection Number (ATCC) 10145, E. coli ATCC 2592, and S. aureus (methicillin reseistant) ATTC 33591.
(§5) The plates were incubated overnight, and the relative percent growth determined by optical density at 620 nm (OD620) using a TITERTEK MULTISKAN PLUS™. […] IC50 values were calculated using a sigmoidal curve fitting software program (GRAPHPAD,™ ISI Software,™ San Diego, Calif.). All samples were tested in duplicate and each assay was repeated at least twice. In the following table, KFAK is the repeat unit and multimers of KFAK were tested. IC50 and MIC are reported in μg/ml.
(§6) Because the antibacterial activity of the periodic peptides was so promising, further experiments were performed to determine if the periodic peptides also had antifungal activity. The experimental design was similar to that above, with accommodation made for fungal growth requirements, including the use of Sabouraud Dextrose Broth (SDB) and Sabouraud Dextrose Agar (SDA) slants.

Cr. Neoformans 32045 = type: cell-based
Method: as §4, §5, §6

Red blood cell toxicity = type: cell-based; settings: red blood cells (RBC)
Red blood cells (RBC) = experiment: Red blood cell toxicity; type: cell-based
HeLa cell line = experiment: HeLa MTS cellular reduction toxicity assay; type: cell-based; settings: for TX50: 24 h, MTS
Method: The RBC protocol was from Blondelle (2000) and is described generally as follows: The toxicity toward the HeLa cell line was determined using a MTS (3-(4-5-dimethylthiazol-2-yl)-5-(3carboxymethoxyphenyl)-2-(4-sulfophenyl)-2H-tetrazolium, sodium salt) cellular reduction assay. MTS (2 mg/mL) was prepared in Dulbecco PBS (pH 7.35), filtered, aliquoted and stored at minus 20° C. In 96 well flat bottomed plates, cell suspensions (250 μL of 6×10^4 cell/mL in each well) were incubated for 48 h at 37° C. (5% CO2 incubator). The peptides (50 μL) were then added to the cell monolayer (following aspiration of the media from each well and addition of 50 μL of Dulbecco's Modified Eagles Medium) at varying concentrations derived from serial 2-fold dilutions, and the plates incubated for 24 h at 37° C. (5% CO2 incubator). Proliferation was then determined by adding a solution of phenazine methosulfate (PMS: 0.92 mg/mL in DPBS) to MTS at a 1:20 ration just prior to the assay. Twenty microliters MTS-PMS solution were added to each well and the plates incubated for 1 h at 37° C. (5% CO2 incubator). The relative percent toxicity was determined by comparing the absorbance at 490 nm of each peptide to the absorbance of cells without peptide. The TX50 (concentration required for 50% toxicity) was calculated using a sigmoidal curve fitting software (Graphpad Prism).

P. aeruginosa ATCC 15442 = experiment: HMARQ biocidal kill activity; type: cell-based; settings: P. aeruginosa ATCC 15442 (gram−)
Method: (§7) Biocide efficacy protocols were improved by reducing sample size, organizing the test material into an array format, implementing most probable number (MPN) quantitation and using multi-channel liquid handling equipment. We call the new method “high-throughput microanalysis and rapid quantitation” or “HMARQ.” HMARQ is directly applicable to current industrial efficacy tests such as multi-cycle preservation challenge or time course disinfection tests.
(§8) HMARQ is performed in a high throughput plate, such as 96-well microtiter plates. Typical sample volumes have been reduced down to 200 to 300 μL, but can be reduced further if desired. In these samples, no more than 10% of the total volume will be composed of the biocide and organism solution, and all non-matrix additions are normalized for all samples.
(§9) The sample matrix is first inoculated with the desired concentration of microorganisms. Inoculated sample matrix is then added to the 96-well assay block containing the biocide(s) under study. Each sample block contains biocide treated samples and untreated control samples (lacking biocide). Once the samples are prepared, the entire block of samples is mixed by vortexing until each sample is homogenous. In general, the study starts once mixing is complete, and samples are removed as required for the analysis. When Kill Time testing (rate of biocide activity) is performed, the microorganisms are added after biocide addition to the samples, allowing for rapid mixing and analysis.
(§10) Bacterial concentration (CFU/mL) is determined using the most probable number method (MPN). The contaminated solution is serially diluted until the “no growth” endpoint is reached. The endpoint represents the MPN and is expressed in units of the bacterial concentration. A serial 1:10 dilution will yield a bacterial concentration resolution of 1 log and the log reduction is determined by comparing the concentration of organisms in a treated sample to the concentration of organisms in untreated samples. For example, if a sample requires four 1:10 dilutions before bacterial growth is lost then the MPN for bacterial concentration in the sample is less than or equal to 1×10^4 CFU/mL (1E4). […] This method of enumeration is generally applicable to all non-filamentous microorganisms.
(§11) Media included Tryptic Soy Broth (TSB) for bacteria and Sabouraud Dextrose Broth (SDB) for fungi. These are available commercially and prepared according to the manufacturers instructions. Indicator medium was TSB/R for bacteria and SDB/R for fungi. These were made by addition of 50 μM filter sterilized Resazurin to the sterilized and cooled medium. Tryptic Soy agar plates (TSA) and SDA slants were used to provide inoculant for bacterial and fungal cultures. The indicator dye appeared pink or white when bacterial growth was present.
(§12) Using the HMARQ test described above, periodic peptides were generated and tested for Kill Activity. In this experiment, a broader range of peptidezs were tested for activity. Units are expressed as ppm (μg/mL) needed for 3.5 log kill at 15 min or 24 hour and the results are shown below.

Staph. aureus ATCC 6538 = experiment: HMARQ biocidal kill activity; type: cell-based; settings: Staph. aureus ATCC 6538 (gram+)
Method: as §7, §8, §9, §10, §11, §12

[2] = RBCs, concentration required for 50% toxicity, read-out: TX50
[3] = S. aureus (methicillin resistant) 33591, gram+

Row | Substance | IC50 (E. coli ATCC 2592) | MIC (E. coli ATCC 2592) | IC50 (P. aeruginosa ATCC 10145) | MIC (P. aeruginosa ATCC 10145) | IC50 ([1]; ATCC 33591) | MIC ([1]; ATCC 33591) | IC50 (C. albicans 10231) | MIC (C. albicans 10231) | IC50 (Cr. Neoformans 32045) | MIC (Cr. Neoformans 32045) | HC50 at 24 h (Red blood cell toxicity) | % kill at 250 μg/ml (Red blood cells (RBC)) | % kill at 500 μg/ml (HeLa cell line) | TX50 (HeLa cell line) | ppm needed for 3.5 log kill at 15 min (P. aeruginosa ATCC 15442) | ppm needed for 3.5 log kill at 24 hr (P. aeruginosa ATCC 15442) | ppm needed for 3.5 log kill at 15 min (Staph. aureus ATCC 6538) | ppm needed for 3.5 log kill at 24 hr (Staph. aureus ATCC 6538) | HC50 at 24 h (Red blood cell toxicity; [2]) | other results
1 | AKKFAKKFAKKFAKKFAKKFAKKF [AKKF (6), AKKF AKKF AKKF AKKF AKKF AKKF] | 8 µg/mL | 16 to 32 µg/mL | 21 µg/mL | 25 µg/mL | 41 µg/mL | 125 to 250 µg/mL | 225 µg/mL | 250 to 500 µg/mL | 11 µg/mL | 16 to 32 µg/mL | 39 µg/mL | 100% | 7.3% | 33 µg/mL | >500 ppm | 16 ppm | >500 ppm | 125 ppm | – | –
2 | LKLKLKLKLKLKLKLKLK [LK (9), LK LK LK LK LK LK LK LK LK] | 35 µg/mL | 62 to 125 µg/mL | 74 µg/mL | 80 µg/mL | 50 µg/mL | 250 to 500 µg/mL | 216 µg/mL | 250 to 500 µg/mL | 4.9 µg/mL | 32 to 62 µg/mL | – | 21% | 46.0% | 137 µg/mL | 8 ppm | 8 ppm | 16 ppm | 4 ppm | > 500 µg/mL | –
3 | KFAKKFAKKFAKKFAKKFAK [KFAK (5), KFAK KFAK KFAK KFAK KFAK] | 6 µg/mL | 16 to 32 µg/mL | – | – | – | – | 66 µg/mL | 90 to 125 µg/mL | 5 µg/mL | 8 to 16 µg/mL | – | – | 89% | >500 µg/mL | – | – | – | – | > 250 µg/mL | IC50 [1, 3]: >250 µg/mL; MIC [1, 3]: >250 µg/mL; % kill at 250 μg/ml (Red blood cells (RBC); RBCs, 250 μg/ml): 4.1%
4 | RFARRFARRFARRFARRFARRFARRFARRFAR [RFAR (8), RFAR RFAR RFAR RFAR RFAR RFAR RFAR RFAR] | 12 µg/mL | 32 to 62 µg/mL | 30 µg/mL | 62 µg/mL | 20 µg/mL | 125 to 250 µg/mL | 144 µg/mL | 250 to 500 µg/mL | 32 µg/mL | 62 to 125 µg/mL | – | 100% | 9.5% | 71 µg/mL | >500 ppm | 16 ppm | >500 ppm | 125 ppm | 17 µg/mL | –
5 | H-FKAFKAFKAFKAFKAFKAFKAFKAFKA-OH [FKA (9), FKA FKA FKA FKA FKA FKA FKA FKA FKA] | 4 µg/mL | 31 to 62 µg/mL | 16 µg/mL | 20 µg/mL | 17 µg/mL | 31 to 62 µg/mL | 195 µg/mL | 250 to 500 µg/mL | 16 µg/mL | 62 to 125 µg/mL | – | 24% | 20.9% | 389 µg/mL | 4 ppm | 4 ppm | 8 ppm | 125 ppm | > 500 µg/mL | –
6 | H-KFAKKFAKKFAKKFAKKFAKKFAK-OH [KFAK (6), KFAK KFAK KFAK KFAK KFAK KFAK] | 4 µg/mL | 8 to 16 µg/mL | 5.6 µg/mL | – | 38.7 µg/mL | 125 to 250 µg/mL | 72 µg/mL | 80 to 125 µg/mL | 5.8 µg/mL | 16 to 32 µg/mL | > 250 µg/mL | 7.3% | 30.5% | 457.3 µg/mL | – | – | – | – | – | –
7 | KFAKKFAKKFAKKFAK [KFAK (4), KFAK KFAK KFAK KFAK] | 46 µg/mL | 62 to 125 µg/mL | – | – | – | – | 70 µg/mL | 90 to 125 µg/mL | 5.3 µg/mL | 6.0 to 8.0 µg/mL | – | – | 76% | >500 µg/mL | – | – | – | – | > 250 µg/mL | IC50 [1, 3]: >250 µg/mL; MIC [1, 3]: >250 µg/mL; % kill at 250 μg/ml (Red blood cells (RBC); RBCs, 250 μg/ml): 0.1%
8 | KFAKKFAKKFAKKFAKKFAKKFAKKFAK [KFAK (7), KFAK KFAK KFAK KFAK KFAK KFAK KFAK] | 8 µg/mL | 32 to 62 µg/mL | – | – | 108.8 µg/mL | >250 µg/mL | 82 µg/mL | 100 to 125 µg/mL | – | 32 to 62 µg/mL | > 250 µg/mL | 13.7% | 13.0% | 204.1 µg/mL | – | – | – | – | – | TX50 (Red blood cells (RBC)): >250 µg/mL
